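The compound was tested at five concentrations on cells cultured in 96-well plates, with a 48-hour exposure period. Here, GI50 denotes the concentration required for 50% inhibition of growth.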 Calls of active or inactive are those of the source. Cut-off read from the data, not from the text of the source: active = GI50 up to about 1.1 µM and inactive = higher.
What was measured:
Assay in all cases: growth of human tumour cells (NCI), 48 h
HL-60 = test system: HL-60
MOLT-4 = test system: MOLT-4
OVCAR-5 = test system: OVCAR-5
UACC-257 = test system: UACC-257
HCT-15 = test system: HCT-15
HCT-116 = test system: HCT-116
ACHN = test system: ACHN
SF-539 = test system: SF-539
TK-10 = test system: TK-10
NCI-H460 = test system: NCI-H460
HT-29 = test system: HT-29
SK-OV-3 = test system: SK-OV-3
OVCAR-3 = test system: OVCAR-3
RXF 393 = test system: RXF 393
RPMI-8226 = test system: RPMI-8226
T47D = test system: T47D
MDA-MB-435 = test system: MDA-MB-435
M14 = test system: M14
EKVX = test system: EKVX
SN12C = test system: SN12C
BT-549 = test system: BT-549
HCC 2998 = test system: HCC 2998
U-251 = test system: U-251
CCRF-CEM = test system: CCRF-CEM
NCI-H226 = test system: NCI-H226
SR = test system: SR
MDA-N = test system: MDA-N
UO-31 = test system: UO-31
SK-MEL-2 = test system: SK-MEL-2
HOP-62 = test system: HOP-62
SK-MEL-28 = test system: SK-MEL-28
MDA-MB-231 = test system: MDA-MB-231
UACC-62 = test system: UACC-62
Malme-3M = test system: Malme-3M
KM12 = test system: KM12
A498 = test system: A498
K562 = test system: K562
DU-145 = test system: DU-145
LOX IMVI = test system: LOX IMVI
NCI-H23 = test system: NCI-H23
SNB-75 = test system: SNB-75
SNB-19 = test system: SNB-19
MCF7 = test system: MCF7
Hs-578T = test system: Hs-578T
NCI-H522 = test system: NCI-H522
SK-MEL-5 = test system: SK-MEL-5
COLO 205 = test system: COLO 205
PC-3 = test system: PC-3
SF-295 = test system: SF-295
HOP-92 = test system: HOP-92
CAKI-1 = test system: CAKI-1
OVCAR-8 = test system: OVCAR-8
IGROV-1 = test system: IGROV-1
NCI/ADR-RES = test system: NCI/ADR-RES

CCCOP(=O)(OCCC)OC(C(F)(F)F)C(F)(F)F
GI50 (HL-60): > 100 µM (inactive)
GI50 (MOLT-4): > 100 µM (inactive)
GI50 (OVCAR-5): > 100 µM (inactive)
GI50 (UACC-257): > 100 µM (inactive)
GI50 (HCT-15): > 100 µM
GI50 (HCT-116): > 100 µM (inactive)
GI50 (ACHN): > 100 µM (inactive)
GI50 (SF-539): > 100 µM (inactive)
GI50 (TK-10): > 100 µM (inactive)
GI50 (NCI-H460): > 100 µM (inactive)
GI50 (HT-29): > 100 µM (inactive)
GI50 (SK-OV-3): > 100 µM (inactive)
GI50 (OVCAR-3): > 100 µM (inactive)
GI50 (RXF 393): 44.9 µM (inactive)
GI50 (RPMI-8226): > 100 µM (inactive)
GI50 (T47D): > 100 µM (inactive)
GI50 (MDA-MB-435): > 100 µM (inactive)
GI50 (M14): > 100 µM (inactive)
GI50 (EKVX): > 100 µM (inactive)
GI50 (SN12C): > 100 µM (inactive)
GI50 (BT-549): > 100 µM (inactive)
GI50 (HCC 2998): > 100 µM (inactive)
GI50 (U-251): > 100 µM (inactive)
GI50 (CCRF-CEM): > 100 µM (inactive)
GI50 (NCI-H226): > 100 µM (inactive)
GI50 (SR): > 100 µM (inactive)
GI50 (MDA-N): > 100 µM (inactive)
GI50 (UO-31): > 100 µM (inactive)
GI50 (SK-MEL-2): > 100 µM (inactive)
GI50 (HOP-62): > 100 µM (inactive)
GI50 (SK-MEL-28): > 100 µM (inactive)
GI50 (MDA-MB-231): > 100 µM (inactive)
GI50 (UACC-62): > 100 µM (inactive)
GI50 (Malme-3M): > 100 µM (inactive)
GI50 (KM12): > 100 µM (inactive)
GI50 (A498): > 100 µM (inactive)
GI50 (K562): > 100 µM (inactive)
GI50 (DU-145): > 100 µM (inactive)
GI50 (LOX IMVI): > 100 µM (inactive)
GI50 (NCI-H23): > 100 µM (inactive)
GI50 (SNB-75): > 100 µM (inactive)
GI50 (SNB-19): > 100 µM (inactive)
GI50 (MCF7): > 100 µM (inactive)
GI50 (Hs-578T): > 100 µM (inactive)
GI50 (NCI-H522): > 100 µM (inactive)

O=C(N/N=C(/c1ccccc1)C(F)(F)F)c1ccncc1
GI50 (HL-60): > 100 µM (inactive)
GI50 (MOLT-4): 64.3 µM (inactive)
GI50 (OVCAR-5): > 100 µM (inactive)
GI50 (SK-MEL-5): > 100 µM (inactive)
GI50 (HCT-15): > 100 µM
GI50 (COLO 205): > 100 µM (inactive)
GI50 (HCT-116): > 100 µM (inactive)
GI50 (TK-10): > 100 µM (inactive)
GI50 (NCI-H460): > 100 µM (inactive)
GI50 (HT-29): > 100 µM (inactive)
GI50 (SK-OV-3): > 100 µM (inactive)
GI50 (OVCAR-3): > 100 µM (inactive)
GI50 (RXF 393): 0.923 µM (active)
GI50 (RPMI-8226): > 100 µM (inactive)
GI50 (T47D): > 100 µM (inactive)
GI50 (MDA-MB-435): > 100 µM (inactive)
GI50 (M14): > 100 µM (inactive)
GI50 (PC-3): > 100 µM (inactive)
GI50 (SN12C): > 100 µM (inactive)
GI50 (BT-549): > 100 µM (inactive)
GI50 (HCC 2998): > 100 µM (inactive)
GI50 (U-251): > 100 µM (inactive)
GI50 (CCRF-CEM): 76 µM (inactive)
GI50 (NCI-H226): > 100 µM (inactive)
GI50 (SR): > 100 µM (inactive)
GI50 (MDA-N): > 100 µM (inactive)
GI50 (UO-31): > 100 µM (inactive)
GI50 (SK-MEL-2): > 100 µM (inactive)
GI50 (SF-295): > 100 µM (inactive)
GI50 (HOP-62): > 100 µM (inactive)
GI50 (SK-MEL-28): > 100 µM (inactive)
GI50 (UACC-62): > 100 µM (inactive)
GI50 (HOP-92): > 100 µM (inactive)
GI50 (Malme-3M): > 100 µM (inactive)
GI50 (CAKI-1): > 100 µM (inactive)
GI50 (OVCAR-8): > 100 µM (inactive)
GI50 (KM12): > 100 µM (inactive)
GI50 (IGROV-1): > 100 µM (inactive)
GI50 (NCI/ADR-RES): > 100 µM (inactive)
GI50 (A498): > 100 µM (inactive)
GI50 (K562): 35.1 µM (inactive)
GI50 (DU-145): > 100 µM (inactive)
GI50 (NCI-H23): > 100 µM (inactive)
GI50 (SNB-75): > 100 µM (inactive)
GI50 (SNB-19): > 100 µM (inactive)
GI50 (MCF7): > 100 µM (inactive)
GI50 (Hs-578T): > 100 µM (inactive)
GI50 (NCI-H522): > 100 µM (inactive)
